Assay [1] relates to Aβ40 in conditioned medium of cells expressing amyloid precursor protein. The experiment in a line: In vitro BACE cell-based assay (HEK cell assay), Aβ40 sandwich ELISA. Conditions: Aβ40 in supernatant after 24 h incubation. The procedure:
In Vitro BACE Cell-Based Assay
The cell-based assay measures inhibition or reduction of Aβ40 in conditioned medium of test compound treated cells expressing amyloid precursor protein.
Cells stably expressing Amyloid Precursor Protein (APP) were plated at a density of 40K cells/well in 96 well plates (Costar). The cells were cultivated for 24 hours at 37° C. and 5% CO2 in DMEM supplemented with 10% FBS. The test compounds were then added to cells in 10-point dose response concentrations with the starting concentration being either 100 μM or 10 μM. The compounds were diluted from stock solutions in DMSO and the final DMSO concentration of the test compounds on cells was 0.1%. After 24 h of incubation with the test compounds the supernatant conditioned media was collected and the Aβ 40 levels were determined using a sandwich ELISA. The IC50 of the compound was calculated from the percent of control or percent inhibition of Aβ 40 as a function of the concentration of the test compound.
The sandwich ELISA to detect Aβ 40 was performed in 96 well microtiter plates, which were pre-treated with goat anti-rabbit IgG (Pierce). The capture and detecting antibody pair that were used to detect Aβ 40 from cell supernatants were affinity purified pAb40 (Biosource) and biotinylated 6E10 (Signet Labs Inc.), respectively. The optimal concentration for the pAb40 antibody was 3 μg/ml in Superblock/TBS (Pierce) that was supplemented with 0.05% Tween 20 (Sigma).
Cellular supernatants were incubated with the capture antibody for 3 h at 4° C., followed by 3 wash steps in TBS-tween (0.05%). The detecting antibody incubation was for 2 h at 4° C., again followed by the wash steps as described previously. The final readout of the ELISA is Time-Resolved Fluorescence (counts per minute) using Delfia reagents Streptavidin-Europium and Enhancement solutions (Perkin Elmer) and the Victor 2 multilabel counter (Perkin Elmer).
(In general: ELISA stands for enzyme-linked immunosorbent assay.)

Assay [2] concerns the target BACE 1 (Beta Secretase enzyme) (Homo sapiens (Human), UniProt P56817). Kind of assay: In vitro enzymatic BACE FRET assay. In kind it is biochemical. Conditions: enzyme 0.2 nM, FRET substrate 50 nM, pH 4.2. The procedure: In Vitro Enzymatic BACE FRET (Fluorescence Resonance Energy Transfer) Assay (Enzyme Assay Data in the Example Table I)
The assay buffer used in this screen is 0.05 M acetate, pH 4.2, 10% DMSO final, 100 uM genapol (which is a nonionic detergent, below its Critical Micelle Concentration). […] This assay is effectively started by the addition of FRET substrate (50 nM) and the combination is incubated for one hour. The FRET assay is terminated with by addition of Tris buffer, which raises the pH to neutrality, and the fluorescence is determined. The FRET substrate is a peptide with commercially available fluorophore and quencher, on opposite sides of the BACE cleavage site. Proteolytic cleavage of the FRET substrate releases quenching of fluorescence (excitation […] and […]).

The mark [3] stands for this setting: Homo sapiens, HEK293, 24 h, average IC50, read-out: HEK cell assay.
Setting [4] is: average IC50, read-out: BACE 1 FRET assay.
Where [5] appears, read: average IC50, read-out: HEK cell assay.

Read-outs that look alike come from different tables or passages of the source.

Sequence of BACE 1 (Beta Secretase enzyme) (P56817 46-501): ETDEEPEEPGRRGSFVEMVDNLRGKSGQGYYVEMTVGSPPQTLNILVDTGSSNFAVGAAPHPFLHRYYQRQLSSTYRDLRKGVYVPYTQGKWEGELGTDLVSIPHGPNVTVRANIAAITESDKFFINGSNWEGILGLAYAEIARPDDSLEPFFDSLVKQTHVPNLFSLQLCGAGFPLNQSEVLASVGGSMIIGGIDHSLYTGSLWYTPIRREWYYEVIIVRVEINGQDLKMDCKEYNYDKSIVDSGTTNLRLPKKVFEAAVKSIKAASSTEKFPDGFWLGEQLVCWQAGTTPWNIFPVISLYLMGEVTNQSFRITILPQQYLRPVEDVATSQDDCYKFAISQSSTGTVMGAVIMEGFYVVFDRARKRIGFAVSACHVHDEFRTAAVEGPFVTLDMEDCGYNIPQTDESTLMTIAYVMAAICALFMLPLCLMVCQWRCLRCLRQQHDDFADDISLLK

On to `CC#Cc1cncc(-c2ccc3c(c2)[C@@]2(N=C(N)N(C)C2=O)c2cc(C4=CCOCC4)cc(F)c2O3)c1` [Example 31, (4R)-2-amino-2′-(3,6-dihydro-2H-pyran-4-yl)-4′-fluoro-1-methyl-7′-(5-(1-propyn-1-yl)-3-pyridinyl)spiro[imidazole-4,9′-xanthen]-5(1H)-one], for which the IC50 in assay [1] (setting [3]) is 4410 nM; in assay [2] (setting [4]) it was 179 nM.

For the compound `Cc1ccc(-c2cc(F)c3c(c2)[C@]2(N=C(N)N(C)C2=O)c2cc(-c4cccc(Cl)c4)ccc2O3)cc1` [Example 36, (4R)-2-amino-7′-(3-chlorophenyl)-4′-fluoro-1-methyl-2′-(4-methylphenyl)spiro[imidazole-4,9′-xanthen]-5(1H)-one], the IC50 in assay [1] (setting [5]) was more than 10000 nM; in assay [2] (setting [4]) it was 225 nM. As to `COc1ccc2c(c1)[C@]1(N=C(N)N(C)C1=O)c1cc(-c3cncnc3)ccc1O2` (stereo in doubt) [Example 8, 2-amino-2′-methoxy-1-methyl-7′-(pyrimidin-5-yl)spiro[imidazole-4,9′-xanthen]-5(1H)-one], the IC50 in assay [1] (setting [3]) amounted to 108 nM; in assay [2] (setting [4]), 13.4 nM.

On to `CN1C(=O)C[C@@]2(N=C1N)c1cc(-c3cccnc3F)ccc1Oc1cnc(C3=CCOCC3)cc12` [Example 23, (R)-2′-amino-3-(3,6-dihydro-2H-pyran-4-yl)-7-(2-fluoropyridin-3-yl)-1′-methyl-1′H-spiro[chromeno[2,3-c]pyridine-5,4′-pyrimidin]-6′(5′H)-one], for which the results for the IC50 in assay [1] (setting [3]) and in assay [2] (setting [4]) were 1680 nM and 1750 nM, respectively. In the case of `CN1C(=O)[C@]2(N=C1N)c1cc(-c3cccnc3F)ccc1Oc1c(F)cc(-c3ccnc(F)c3)cc12` [Example 39, (4S)-2-amino-4′-fluoro-7′-(2-fluoro-3-pyridinyl)-2′-(2-fluoro-4-pyridinyl)-1-methylspiro[imidazole-4,9′-xanthen]-5(1H)-one], in assay [1] (setting [3]), the IC50 came to 3.1 nM. Take `CN1C(=O)C[C@]2(N=C1N)c1cc(-c3cccnc3F)ccc1Oc1cnc(C3=CCOCC3)cc12` [Example 22, (S)-2′-amino-3-(3,6-dihydro-2H-pyran-4-yl)-7-(2-fluoropyridin-3-yl)-1′-methyl-1′H-spiro[chromeno[2,3-c]pyridine-5,4′-pyrimidin]-6′(5′H)-one]: the IC50 in assay [1] (setting [3]) was 59.8 nM; in assay [2] (setting [4]), 9.3 nM.

Regarding `CN1C(=N)NC2(CC1=O)c1cc(-c3cccnc3F)ccc1Oc1cnc(-c3cccnc3F)cc12` (stereo not shown) [Example 21, 3,7-bis(2-fluoropyridin-3-yl)-2′-imino-1′-methyl-2′,3′-dihydro-1′H-spiro[chromeno[2,3-c]pyridine-5,4′-pyrimidin]-6′(5′H)-one], the IC50 in assay [1] (setting [3]) was 426 nM; in assay [2] (setting [4]) it was 48.3 nM. For `Cc1ccc(-c2cc(F)c3c(c2)[C@]2(N=C(N)N(C)C2=O)c2cc(-c4cccc(Cl)c4)ccc2O3)cc1` (stereo in doubt) [Example 33, (4R)-2-amino-7′-(3-chlorophenyl)-4′-fluoro-1-methyl-2′-(4-methylphenyl)spiro[imidazole-4,9′-xanthen]-5(1H)-one, (4S)-2-amino-7′-(3-chlorophenyl)-4′-fluoro-1-methyl-2′-(4-methylphenyl)spiro[imidazole-4,9′-xanthen]-5(1H)-one], the results for the IC50 in assay [1] (setting [5]) and in assay [2] (setting [4]) were 237 nM and 4.1 nM, respectively. With `CN1C(=O)C[C@]2(N=C1N)c1cc(-c3cccnc3F)ccc1Oc1cnc(C3=CCCOC3)cc12` [Example 24, (S)-2′-amino-3-(5,6-dihydro-2H-pyran-3-yl)-7-(2-fluoropyridin-3-yl)-1′-methyl-1′H-spiro[chromeno[2,3-c]pyridine-5,4′-pyrimidin]-6′(5′H)-one], the IC50 in assay [1] (setting [3]) was 52.3 nM; in assay [2] (setting [4]) it was 12.1 nM. Take `CN1C(=O)[C@@]2(N=C1N)c1cc(-c3cccc(Cl)c3)ccc1Oc1c(F)cc(C3=CCOCC3)cc12` [Example 35, (4R)-2-amino-7′-(3-chlorophenyl)-2′-(3,6-dihydro-2H-pyran-4-yl)-4′-fluoro-1-methylspiro[imidazole-4,9′-xanthen]-5(1H)-one]: the IC50 in assay [1] (setting [3]) was 1820 nM; in assay [2] (setting [4]), 24.3 nM. For the compound `CN1C(=O)CC2(N=C1N)c1cc(-c3cccnc3F)ccc1Oc1c2cc(C2=CCCOC2)nc1F` (stereo not shown) [Example 16, 2′-amino-3-(5,6-dihydro-2H-pyran-3-yl)-1-fluoro-7-(2-fluoropyridin-3-yl)-1′-methyl-1′H-spiro[chromeno[2,3-c]pyridine-5,4′-pyrimidin]-6′(5′H)-one], the IC50 came to 6.3 nM in assay [1] (setting [3]) and 1.4 nM in assay [2] (setting [4]).

As for `CN1C(=O)C[C@]2(N=C1N)c1cc(-c3cccnc3F)ccc1Oc1c2cc(Cl)nc1F` [Example 15, (S)-2′-amino-3-chloro-1-fluoro-7-(2-fluoropyridin-3-yl)-1′-methyl-1′H-spiro[chromeno[2,3-c]pyridine-5,4′-pyrimidin]-6′(5′H)-one], the IC50 worked out at 643 nM in assay [1] (setting [3]) and 33.2 nM in assay [2] (setting [4]). Take `CN1C(=O)CC2(N=C1N)c1cc(-c3cccnc3F)ccc1Oc1c2cc(-c2cccnc2F)nc1F` (stereo not shown) [Example 13, 2′-amino-1-fluoro-3,7-bis(2-fluoropyridin-3-yl)-1′-methyl-1′H-spiro[chromeno[2,3-c]pyridine-5,4′-pyrimidin]-6′(5′H)-one]: the IC50 in assay [1] (setting [3]) worked out at 154 nM; in assay [2] (setting [4]), 22.8 nM.

Regarding `CN1C(=O)C[C@]2(N=C1N)c1cc(-c3cccnc3F)ccc1Oc1c2cc(C2=CC(C)(C)OCC2)nc1F` [Example 26, (S)-2′-amino-3-(6,6-dimethyl-3,6-dihydro-2H-pyran-4-yl)-1-fluoro-7-(2-fluoropyridin-3-yl)-1′-methyl-1′H-spiro[chromeno[2,3-c]pyridine-5,4′-pyrimidin]-6′(5′H)-one], the IC50 in assay [1] (setting [3]) came to 5 nM; in assay [2] (setting [4]) it was 0.6 nM. In the case of `CN1C(=O)C[C@@]2(N=C1N)c1cc(-c3cccnc3F)ccc1Oc1cnc(-c3ccnc(F)c3)cc12` [Example 21-A, (R)-7-(2-Fluoropyridin-3-yl)-3-(2-fluoropyridin-4-yl)-2′-imino-1′-methyl-2′,3′-dihydro-1′H-spiro[chromeno[2,3-c]pyridine-5,4′-pyrimidin]-6′(5′H)-one], the IC50 in assay [1] (setting [3]) was 2380 nM. Regarding `CN1C(=O)CC2(N=C1N)c1cc(-c3cccnc3F)ccc1Oc1c2cc(Cl)nc1F` (stereo not shown) [Example 12, 2′-amino-3-chloro-1-fluoro-7-(2-fluoropyridin-3-yl)-1′-methyl-1′H-spiro[chromeno[2,3-c]pyridine-5,4′-pyrimidin]-6′(5′H)-one], the IC50 in assay [1] (Homo sapiens, HEK293, 24 h, class symbols, read-out: HEK cell assay (IC50 class)) was more than 1000 nM; in assay [2] (class symbols, read-out: BACE 1 FRET assay (IC50 class)) it was 100 to 1000 nM.

As to `CN1C(=O)C[C@@]2(N=C1N)c1cc(-c3cccnc3F)ccc1Oc1c2cc(Cl)nc1F` [Example 14, (R)-2′-amino-3-chloro-1-fluoro-7-(2-fluoropyridin-3-yl)-1′-methyl-1′H-spiro[chromeno[2,3-c]pyridine-5,4′-pyrimidin]-6′(5′H)-one], the IC50 in assay [1] (setting [3]) was 361 nM; in assay [2] (setting [4]), 8210 nM.

For the compound `CN1C(=O)C[C@]2(N=C1N)c1cc(-c3cccnc3F)ccc1Oc1cnc(-c3ccnc(F)c3)cc12` [Example 21-B, (S)-7-(2-Fluoropyridin-3-yl)-3-(2-fluoropyridin-4-yl)-2′-imino-1′-methyl-2′,3′-dihydro-1′H-spiro[chromeno[2,3-c]pyridine-5,4′-pyrimidin]-6′(5′H)-one], in assay [1] (setting [3]), the IC50 is 99.5 nM. Turning to `CN1C(=O)[C@@]2(N=C1N)c1cc(-c3cccnc3F)ccc1Oc1c(F)cc(-c3ccnc(F)c3)cc12` [Example 38, (4R)-2-amino-4′-fluoro-7′-(2-fluoro-3-pyridinyl)-2′-(2-fluoro-4-pyridinyl)-1-methylspiro[imidazole-4,9′-xanthen]-5(1H)-one], in assay [1] (setting [3]), the IC50 came to 290 nM.

Source of the values: patent publication US8957083B2, “Spiro-amino-imidazolone and spiro-amino-dihydro-pyrimidinone compounds as beta-secretase modulators and methods of use” (Amgen Inc., priority 2010, dated 2015).
